Assay results taken from patent publication US10238655B2, “Dihydroindene and tetrahydronaphthalene compounds” (ARIZONA BOARD OF REGENTS ON BEHALF OF ARIZONA STATE …, priority 2017, dated 2019).

Test system: not given
Details: not given

Row | melting point | Compound
1 | 213.1 to 214.4 °C | CCN(c1ccc2c(c1)C(C)(C)CCC2(C)C)c1cnc(C(=O)O)cn1 [Example 7, 5-(Ethyl(5,5,8,8-tetramethyl-5,6,7,8-tetrahydronaphthalen-2-yl)amino)pyrazine-2-carboxylic acid]
2 | 203.6 to 205.1 °C | CCN(c1cnc(C(=O)O)cn1)c1cc2c(cc1C)C(C)(C)CCC2(C)C [Example 8, 5-(Ethyl(3,5,5,8,8-pentamethyl-5,6,7,8-tetrahydronaphthalen-2-yl)amino)pyrazine-2-carboxylic acid]
3 | 252.4 to 256.8 °C | CCN(c1ccc(C(=O)O)c(F)c1)c1ccc2c(c1)C(C)(C)CCC2(C)C [Example 9, 4-(Ethyl(5,5,8,8-tetramethyl-5,6,7,8-tetrahydronaphthalen-2-yl)amino)-2-fluorobenzoic acid]
4 | 241.4 to 243.8 °C | CCN(c1ccc(C(=O)O)c(F)c1)c1cc2c(cc1C)C(C)(C)CCC2(C)C [Example 10, 4-(Ethyl(3,5,5,8,8-pentamethyl-5,6,7,8-tetrahydronaphthalen-2-yl)amino)-2-fluorobenzoic acid]

The next lines start with the compound.

Row | Compound | melting point
5 | CCN(c1ccc2c(c1)C(C)(C)CCC2(C)C)c1ccc(C(=O)O)cn1 [Example 1, 6-(ethyl(5,5,8,8-tetramethyl-5,6,7,8-tetrahydronaphthalen-2-yl)amino)nicotinic acid] | 230 to 232 °C
6 | CCN(c1ccc(C(=O)O)cc1)c1ccc2c(c1)C(C)(C)CCC2(C)C [Example 2, 4-(Ethyl(5,5,8,8-tetramethyl-5,6,7,8-tetrahydronaphthalen-2-yl)amino)benzoic acid] | 247.8 to 250.6 °C
7 | CCN(c1ccc(C(=O)O)cc1)c1cc2c(cc1C)C(C)(C)CCC2(C)C [Example 3, 4-(Ethyl(3,5,5,8,8-pentamethyl-5,6,7,8-tetrahydronaphthalen-2-yl)amino)benzoic acid] | 252.4 to 256.8 °C
8 | CCN(c1ncc(C(=O)O)cn1)c1cc2c(cc1C)C(C)(C)CCC2(C)C [Example 6, 2-(Ethyl(3,5,5,8,8-pentamethyl-5,6,7,8-tetrahydronaphthalen-2-yl)amino)pyrimidine-5-carboxylic acid] | 231.9 to 233.1 °C

Molecular target: hRXRβ (Homo sapiens, UniProt P28702)
Details: read-out: EC50 for the hRXRβ isoform; cited from earlier work

Sequence of hRXRβ (P28702 whole entry, canonical isoform): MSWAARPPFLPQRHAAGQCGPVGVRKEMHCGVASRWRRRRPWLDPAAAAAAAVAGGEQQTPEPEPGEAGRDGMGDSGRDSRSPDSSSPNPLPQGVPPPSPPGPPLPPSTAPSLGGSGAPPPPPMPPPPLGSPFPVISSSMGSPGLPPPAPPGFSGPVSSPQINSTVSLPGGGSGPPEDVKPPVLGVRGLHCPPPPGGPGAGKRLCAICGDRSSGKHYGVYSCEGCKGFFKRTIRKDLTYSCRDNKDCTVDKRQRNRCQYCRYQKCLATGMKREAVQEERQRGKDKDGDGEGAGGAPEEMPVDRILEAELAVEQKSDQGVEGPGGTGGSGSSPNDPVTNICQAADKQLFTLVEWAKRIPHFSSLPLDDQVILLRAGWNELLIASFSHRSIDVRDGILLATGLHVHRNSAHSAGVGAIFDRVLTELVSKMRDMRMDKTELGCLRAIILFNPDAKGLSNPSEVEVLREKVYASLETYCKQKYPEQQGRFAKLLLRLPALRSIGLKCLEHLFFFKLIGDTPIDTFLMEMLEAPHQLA

Row | Compound | EC50
9 | Cc1cc2c(cc1-c1cc(/C=C/C(=O)O)ccc1O)C(C)(C)CCC2(C)C [CD3254] | ~10 nM
